This passage reports IC50 results from patent publication US8642601B2, “Inhibitors of JNK” (Roche Palo Alto LLC, priority 2010, dated 2014).

pIC50: −log10 of the molar value.

This experiment concerns T1, JNK.
T1 construct: Human JNK2α2 assay contains 1 nM enzyme; Human JNK1α1 assay contains 2 nM enzyme
Nature of the experiment: JNK Assay in vitro (phosphorylation of GST-ATF2 (19-96) with [γ-33P] ATP). The class given is biochemical. The following applies: JNK isoform not stated for Table 1 (method describes human JNK1α1, JNK2α2, JNK3); Km concentrations of ATP and substrate. As to the method:
JNK activity was measured by phosphorylation of GST-ATF2 (19-96) with [γ-^33P] ATP. The enzyme reaction was conducted at Km concentrations of ATP and the substrate at final volume of 40 μl in buffer containing 25 mM HEPES, pH 7.5, 2 mM dithiothreitol, 150 mM NaCl, 20 mM MgCl2, 0.001% Tween® 20, 0.1% BSA and 10% DMSO. Human JNK2α2 assay contains 1 nM enzyme, 1 μM ATF2, 8 μM ATP with 1 uCi [γ-^33P] ATP. Human JNK1α1 assay contains 2 nM enzyme, 1 μM ATF2, 6 μM ATP with 1 μCi [γ-^33P] ATP. Human JNK3 (Upstate Biotech #14-501M) assay contains 2 nM enzyme, 1 μM ATF2, 4 μM ATP with 1 μCi [γ-^33P] ATP. The enzyme assay was carried out in the presence or absence of several compound concentrations. JNK and compound were pre-incubated for 10 min., followed by initiation of the enzymatic reaction by adding ATP and the substrate. The reaction mixture was incubated at 30° C. for 30 min. At the end of incubation, the reaction was terminated by transferring 25 μl of the reaction mixture to 150 μl of 10% glutathione Sepharose® slurry (Amersham #27-4574-01) containing 135 mM EDTA. The reaction product was captured on the affinity resin, and washed on a filtration plate (Millipore, MABVNOB50) with phosphate buffered saline for six times to remove free radionucleotide. The incorporation of ^33P into ATF2 was quantified on a microplate scintillation counter (Packard Topcount). Compound inhibition potency on JNK was measured by IC50 value generated from ten concentration inhibition curves fitted into the 3-parameter model: % inhibition=Maximum/(1+(IC50/[Inhibitor])^slope). Data were analyzed on Microsoft Excel for parameter estimation.
As a reminder, the pIC50 is the negative decadic logarithm of the IC50, by convention in mol/L. For the compound `CCCN1CCC[C@H](NC(=O)[C@H]2CC[C@H](Nc3nccc(-n4ccc5c(OCCCS(C)(=O)=O)cccc54)n3)CC2)C1` (stereo in doubt) [Compound 14, 4-{4-[4-(3-Methanesulfonyl-propoxy)-indol-1-yl]-pyrimidin-2-ylamino}-cyclohexanecarboxylic acid ((R)-1-propyl-piperidin-3-yl)-amide], the pIC50 was 7.05.
In the case of `CCN1CCC[C@@H](NC(=O)[C@H]2CC[C@H](Nc3nccc(-n4ccc5c(OCCCS(C)(=O)=O)cccc54)n3)CC2)C1` (stereo in doubt) [Compound 17, 4-{4-[4-(3-Methanesulfonyl-propoxy)-indol-1-yl]-pyrimidin-2-ylamino}-cyclohexanecarboxylic acid ((S)-1-ethyl-piperidin-3-yl)-amide], the pIC50 was 6.94.
The same measure for `CCOC(=O)[C@@H]1CCCN(C(=O)[C@H]2CC[C@H](Nc3nccc(-n4ccc5c(OCCCS(C)(=O)=O)cccc54)n3)CC2)C1` [Compound 2, (R)-1-(4-{4-[4-(3-Methanesulfonyl-propoxy)-indol-1-yl]-pyrimidin-2-ylamino}-cyclohexanecarbonyl)-piperidine-3-carboxylic acid ethyl ester]: 7.13.
Turning to `CCN1CCN(C(=O)[C@H]2CC[C@H](Nc3nccc(-n4ccc5c(OCC6CCS(=O)(=O)C6)cccc54)n3)CC2)C[C@H]1C` (stereo partly drawn) [Compound 3, (4-{4-[4-(1,1-Dioxo-tetrahydro-1λ^6-thiophen-3-ylmethoxy)-indol-1-yl]-pyrimidin-2-ylamino}-cyclohexyl)-((R)-4-ethyl-3-methyl-piperazin-1-yl)-methanone], the pIC50 was 7.34.
For the compound `CCN1CCN(C(=O)[C@H]2CC[C@H](Nc3nccc(-n4ccc5c(OCC6CCS(=O)(=O)C6)cccc54)n3)CC2)C[C@@H]1C` (stereo partly drawn) [Compound 9, (4-{4-[4-(1,1-Dioxo-tetrahydro-1λ^6-thiophen-3-ylmethoxy)-indol-1-yl]-pyrimidin-2-ylamino}-cyclohexyl)-((S)-4-ethyl-3-methyl-piperazin-1-yl)-methanone], the pIC50 was 7.71.
The same measure for `CCCN1CC[C@@H](NC(=O)[C@H]2CC[C@H](Nc3nccc(-n4ccc5c(OCCCS(C)(=O)=O)cccc54)n3)CC2)C1` [Compound 11, 4{4-[4-(3-Methanesulfonyl-propoxy)-indol-1-yl]-pyrimidin-2-ylamino}-cyclohexanecarboxylic acid ((R)-1-propyl-pyrrolidin-3-yl)-amide]: 6.78; for `CCN1CC[C@H](NC(=O)[C@H]2CC[C@H](Nc3nccc(-n4ccc5c(OCCCS(C)(=O)=O)cccc54)n3)CC2)C1` [Compound 13, 4-{4-[4-(3-Methanesulfonyl-propoxy)-indol-1-yl]-pyrimidin-2-ylamino}-cyclohexanecarboxylic acid ((S)-1-ethyl-pyrrolidin-3-yl)-amide]: 6.47.
As to `CN(CC1CCCCN1C)C(=O)[C@H]1CC[C@H](Nc2nccc(-n3ccc4c(OCCCS(C)(=O)=O)cccc43)n2)CC1` (stereo partly shown) [Compound 19, 4-{4-[4-(3-Methanesulfonyl-propoxy)-indol-1-yl]-pyrimidin-2-ylamino}-cyclohexanecarboxylic acid methyl-(1-methyl-piperidin-2-ylmethyl)-amide], the negative-log IC50 (pIC50) is 7.10.
The same measure for `CCN1CCCC1CNC(=O)[C@H]1CC[C@H](Nc2nccc(-n3ccc4c(OCCCS(C)(=O)=O)cccc43)n2)CC1` (stereo partly shown) [Compound 20, 4-{4-[4-(3-Methanesulfonyl-propoxy)-indol-1-yl]-pyrimidin-2-ylamino}-cyclohexanecarboxylic acid (1-ethyl-pyrrolidin-2-ylmethyl)-amide]: 7.09; for `CS(=O)(=O)CCCOc1cccc2c1ccn2-c1ccnc(N[C@H]2CC[C@H](C(=O)N3C[C@@H]4C[C@@H]3CN4)CC2)n1` [Compound 21, (1R,4S)-2,5-Diaza-bicyclo[2.2.1]hept-2-yl-(4-{4-[4-(3-methanesulfonyl-propoxy)-indol-1-yl]-pyrimidin-2-ylamino}-cyclohexyl)-methanone]: 6.84.
